# Experimental data from patent US20050208496A1, “Methods of testing for bronchial asthma or chronic obstructive pulmonary disease” (Genox Research, Inc., priority 2002, published 2005).
# Test system: pendrin gene
# Test: Quantitative PCR (ABI 7700) of the pendrin gene in epithelial cells cultured by the AI or IMM method
# Type: cell-based, human
# Settings: respiratory tract epithelial cells
# From the text: Quantitative PCR assays were further performed with ABI 7700 using two batches of epithelial cells cultured respectively by the AI method and the IMM method described in Example 1 to quantitatively determine the expression level of the pendrin gene selected in Example 5. The primers and TaqMan probe used in the assays with ABI 7700 were designed based on the information on the sequence of the pendrin gene utilizing Primer Express (PE Biosystems). The 5′ and 3′ ends of the TaqMan probe were labeled with FAM (6-carboxy-fluorescein) and TAMRA (6-carboxy-N,N,N′,N′-tetramethylrhodamine), respectively. The sequences of oligonucleotides of the forward primer (F), reverse primer (R), and TaqMan probe (TP) for the pendrin gene are shown below. The GenBank accession number corresponding to the nucleotide sequence of each marker gene is shown in parenthesis after the name.
# Total RNA extracted by the aforementioned method was treated with DNase (Nippon Gene). […]
# Additionally, to correct the differences of cDNA concentration in the sample, a similar quantitative analysis was performed for β-actin gene and glyceraldehyde-3-phosphate dehydrogenase (GAPDH) gene as internal standards for correction. By correcting based on the number of copies of these genes, the number of copies of the genes of interest was calculated. […]
substance,measurement,value
"IL-13: human IL-13 (Peprotech, Inc.) added to the medium at 50 ng/mL to stimulate respiratory epithelial cells","pendrin gene expression level, elevation as a result of IL-13 stimulation (quantitative PCR)",hundred folds or more
